Measurements reported in patent US20260158014A1, “METHODS OF ADMINISTERING VOXELOTOR” (Global Blood Therapeutics, Inc., priority 2021, published 2026).
“Also recorded” adds a separate entry of the source.

Legend:
[1] = Tablet for oral suspension versus oral tablet exposure in healthy subjects; format: in vivo, human
[2] = test system: patients with SCD aged 4 to 11 years; assay: Open-label Phase 2 trial (part C): safety assessment (TEAEs)
CYP2B6 = CYP2B6 (Homo sapiens, UniProt P20813); assay: In vitro CYP enzyme study; format: in vitro ADME
OATP1A2 = OATP1A2 (Homo sapiens, UniProt P46721); assay: In vitro transporter study; format: in vitro ADME
pregnant rabbits = assay: Embryo-fetal development study in rabbits; format: in vivo, rabbit; details: oral 25, 75, 150 mg/kg/day, gestation days 7 through 19
Procedure: In embryo-fetal development studies, voxelotor was administered orally to pregnant rats at 15, 50, and 250 mg/kg/day (gestation days 7 through 17) and rabbits at 25, 75, and 150 mg/kg/day (gestation days 7 through 19) through organogenesis.

[3] = Clinical pharmacokinetics after oral administration; format: in vivo, human
OAT1 = OAT1 (Homo sapiens, UniProt Q4U2R8); assay: In vitro transporter study; format: in vitro ADME
[4] = PK in patients with HbSC genotype; format: in vivo, human
MATE1 = MATE1 (Homo sapiens, UniProt Q96FL8); assay: In vitro transporter study; format: in vitro ADME
[5] = Effect of food (high-fat, high-calorie meal); format: in vivo; details: high-calorie meal vs fasted
OATP1B1 = OATP1B1 (Homo sapiens, UniProt Q9Y6L6); assay: In vitro transporter study; format: in vitro ADME
patients with SCD = assay: HOPE Phase 3 trial: efficacy; format: in vivo, human
Procedure: The efficacy and safety of OXBRYTA in SCD was evaluated in HOPE, a Phase 3 randomized, double-blind, placebo-controlled, multicenter trial [NCT 03036813]. In this study, 274 patients were randomized to daily oral administration of OXBRYTA 1,500 mg (N=90), OXBRYTA 900 mg (N=92), or placebo (N=92). Patients were included if they had from 1 to 10 vaso-occlusive crisis (VOC) events within 12 months prior to enrollment and baseline hemoglobin (Hb) ≥5.5 to ≤10.5 g/dL. Eligible patients on stable doses of hydroxyurea for at least 90 days were allowed to continue hydroxyurea therapy throughout the study. Randomization was stratified by patients already receiving hydroxyurea (yes, no), geographic region (North America, Europe, Other), and age (12 to <17 years, 18 to 65 years). The trial excluded patients who received red blood cell (RBC) transfusions within 60 days and erythropoietin within 28 days of enrollment, had renal insufficiency, uncontrolled liver disease, were pregnant, or lactating.
The majority of patients had HbSS or HbS/beta^0-thalassemia genotype (90%) and were receiving background hydroxyurea therapy (65%). The median age was 24 years (range: 12 to 64 years); 46 (17%) patients were 12 to <17 years. Median baseline Hb was 8.5 g/dL (5.9 to 10.8 g/dL). One hundred and fifteen (42%) had 1 VOC event and 159 (58%) had 2 to 10 events within 12 months prior to enrollment. In the OXBRYTA 1,500 mg group, 63 (70%) patients completed the study through Week 72.
Efficacy was based on Hb response rate defined as a Hb increase of >1 g/dL from baseline to Week 24 in patients treated with OXBRYTA 1,500 mg versus placebo. […] No outlier subgroups were observed. The distribution of Hb change from baseline for individual patients completing 24 weeks of treatment with OXBRYTA 1,500 mg or placebo is depicted in FIG. 2.
Additional efficacy evaluation included change in Hb and percent change in indirect bilirubin and percent reticulocyte count from baseline to Week 24 (Table 15).

[6] = 72-week population pharmacokinetic analysis in patients with SCD; format: in vivo, human
[7] = test system: bacterial reverse mutation; assay: Reverse mutation bacterial (Ames) test; format: cell-based
[8] = 4 to 11 years, n=45, listed as OXBRYTA

Sequence of OATP1B1 (Q9Y6L6 whole entry, species assumed): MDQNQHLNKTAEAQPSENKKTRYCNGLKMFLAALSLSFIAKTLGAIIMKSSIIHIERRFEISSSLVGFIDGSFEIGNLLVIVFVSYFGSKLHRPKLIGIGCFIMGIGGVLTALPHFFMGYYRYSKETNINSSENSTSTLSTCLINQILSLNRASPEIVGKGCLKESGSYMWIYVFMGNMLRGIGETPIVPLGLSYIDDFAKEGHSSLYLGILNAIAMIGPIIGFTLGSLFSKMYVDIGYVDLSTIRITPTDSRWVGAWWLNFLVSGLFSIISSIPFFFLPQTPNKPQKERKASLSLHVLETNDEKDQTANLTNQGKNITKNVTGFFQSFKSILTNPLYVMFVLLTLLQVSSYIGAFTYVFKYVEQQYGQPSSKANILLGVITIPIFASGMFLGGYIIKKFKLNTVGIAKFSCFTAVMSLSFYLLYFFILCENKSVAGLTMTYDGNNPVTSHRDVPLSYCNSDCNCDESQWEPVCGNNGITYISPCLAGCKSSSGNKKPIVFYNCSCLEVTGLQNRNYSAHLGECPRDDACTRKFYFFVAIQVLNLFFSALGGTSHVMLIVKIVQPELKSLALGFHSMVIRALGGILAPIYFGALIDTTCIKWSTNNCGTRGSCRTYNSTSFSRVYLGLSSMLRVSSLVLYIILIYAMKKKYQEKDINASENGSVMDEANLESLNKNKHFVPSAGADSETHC
Sequence of CYP2B6 (P20813 whole entry, species assumed): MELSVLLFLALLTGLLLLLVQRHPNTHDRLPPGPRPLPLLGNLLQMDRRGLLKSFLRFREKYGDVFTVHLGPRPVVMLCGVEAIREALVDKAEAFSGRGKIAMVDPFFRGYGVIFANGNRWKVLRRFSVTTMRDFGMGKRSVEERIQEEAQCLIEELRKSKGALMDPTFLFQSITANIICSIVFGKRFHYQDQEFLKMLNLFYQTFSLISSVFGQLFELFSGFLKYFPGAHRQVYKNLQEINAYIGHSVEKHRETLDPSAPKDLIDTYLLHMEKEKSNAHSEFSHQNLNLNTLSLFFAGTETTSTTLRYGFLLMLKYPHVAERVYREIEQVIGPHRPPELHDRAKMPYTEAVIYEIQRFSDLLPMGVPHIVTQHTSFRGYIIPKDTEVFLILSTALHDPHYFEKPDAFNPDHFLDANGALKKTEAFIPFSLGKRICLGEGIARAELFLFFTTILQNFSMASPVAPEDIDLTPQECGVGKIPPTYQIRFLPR
Sequence of OATP1A2 (P46721 whole entry, species assumed): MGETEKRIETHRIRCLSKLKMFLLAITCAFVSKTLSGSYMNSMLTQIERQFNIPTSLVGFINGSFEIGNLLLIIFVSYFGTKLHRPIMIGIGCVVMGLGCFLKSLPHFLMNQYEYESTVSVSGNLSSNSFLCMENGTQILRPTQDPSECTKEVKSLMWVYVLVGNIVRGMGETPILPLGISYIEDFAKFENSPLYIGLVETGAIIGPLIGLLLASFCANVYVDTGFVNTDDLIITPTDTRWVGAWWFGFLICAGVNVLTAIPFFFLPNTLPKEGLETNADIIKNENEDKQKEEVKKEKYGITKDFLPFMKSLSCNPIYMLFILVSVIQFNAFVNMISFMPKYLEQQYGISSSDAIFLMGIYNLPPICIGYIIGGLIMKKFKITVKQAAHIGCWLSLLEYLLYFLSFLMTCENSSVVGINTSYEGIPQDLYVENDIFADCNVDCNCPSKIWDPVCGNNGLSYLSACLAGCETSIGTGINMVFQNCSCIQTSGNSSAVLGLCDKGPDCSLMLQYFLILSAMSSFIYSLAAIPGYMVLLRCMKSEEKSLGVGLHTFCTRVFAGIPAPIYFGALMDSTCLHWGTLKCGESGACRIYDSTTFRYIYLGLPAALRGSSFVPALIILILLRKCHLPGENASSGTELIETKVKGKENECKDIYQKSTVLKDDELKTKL
Sequence of MATE1 (Q96FL8 whole entry, species assumed): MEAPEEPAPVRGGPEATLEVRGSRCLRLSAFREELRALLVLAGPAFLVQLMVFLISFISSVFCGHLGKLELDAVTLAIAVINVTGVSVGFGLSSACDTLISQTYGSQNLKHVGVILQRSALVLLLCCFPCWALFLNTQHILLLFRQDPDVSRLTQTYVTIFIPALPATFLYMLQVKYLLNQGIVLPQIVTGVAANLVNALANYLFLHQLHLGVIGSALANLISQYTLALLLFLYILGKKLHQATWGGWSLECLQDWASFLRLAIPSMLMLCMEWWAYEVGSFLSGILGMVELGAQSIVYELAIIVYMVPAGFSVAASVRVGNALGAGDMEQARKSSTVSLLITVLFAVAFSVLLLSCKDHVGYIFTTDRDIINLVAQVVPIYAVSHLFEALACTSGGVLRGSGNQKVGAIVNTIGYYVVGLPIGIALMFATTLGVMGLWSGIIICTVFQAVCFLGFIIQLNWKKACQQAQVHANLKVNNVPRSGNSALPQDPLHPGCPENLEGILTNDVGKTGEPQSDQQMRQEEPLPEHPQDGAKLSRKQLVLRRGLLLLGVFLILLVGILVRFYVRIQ
Sequence of OAT1 (Q4U2R8 whole entry, species assumed): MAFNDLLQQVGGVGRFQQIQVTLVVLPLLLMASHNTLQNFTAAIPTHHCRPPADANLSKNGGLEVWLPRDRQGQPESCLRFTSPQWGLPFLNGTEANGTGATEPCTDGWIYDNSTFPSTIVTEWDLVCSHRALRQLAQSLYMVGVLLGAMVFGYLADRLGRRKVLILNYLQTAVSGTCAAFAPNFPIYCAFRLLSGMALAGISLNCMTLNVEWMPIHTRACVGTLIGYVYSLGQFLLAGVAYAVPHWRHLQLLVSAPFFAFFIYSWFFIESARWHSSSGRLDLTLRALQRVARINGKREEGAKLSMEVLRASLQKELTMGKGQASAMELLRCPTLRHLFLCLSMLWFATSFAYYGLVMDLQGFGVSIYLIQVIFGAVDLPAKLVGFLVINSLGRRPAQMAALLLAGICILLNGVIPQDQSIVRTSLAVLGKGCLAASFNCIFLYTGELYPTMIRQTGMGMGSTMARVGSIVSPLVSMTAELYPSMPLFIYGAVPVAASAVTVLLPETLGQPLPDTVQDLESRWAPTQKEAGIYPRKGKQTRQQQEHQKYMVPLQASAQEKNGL

CC(C)n1nccc1-c1ncccc1COc1cccc(O)c1C=O [voxelotor, 2-hydroxy-6-((2-(1-isopropyl-1H-pyrazol-5-yl)pyridin-3-yl)methoxy)benzaldehyde]
exposures, tablet for oral suspension dispersed in water vs oral tablet swallowed whole [1]: comparable | Any drug-related TEAE ([2]; 4-11 years, n=45, week 24): 22 (48.9) n (%) | Drug-related AE: Abdominal pain ([2]; 4-11 years, n=45, week 24): 4 (8.9) n (%) | Drug-related AE: Diarrhea ([2]; 4-11 years, n=45, week 24): 5 (11.1) n (%) | Drug-related AE: Headache ([2]; 4-11 years, n=45, week 24): 2 (4.4) n (%) | Drug-related AE: Hypersplenism ([2]; 4-11 years, n=45, week 24): 2 (4.4) n (%) | Drug-related AE: Pyrexia ([2]; 4-11 years, n=45, week 24): 2 (4.4) n (%) | Drug-related AE: Rash ([2]; 4-11 years, n=45, week 24): 5 (11.1) n (%) | Drug-related AE: Transaminases increased ([2]; 4-11 years, n=45, week 24): 4 (8.9) n (%) | Drug-related AE: Vomiting ([2]; 4-11 years, n=45, week 24): 5 (11.1) n (%) | tolerability of weight-based dosing ([2]; 4 to 11 years, median exposure 43.3 weeks): well tolerated | deaths ([2]; 4 to 11 years, n=45): no deaths | drug-related TEAE diarrhea, patients ([2]; 4 to 11 years, n=45): 11% | drug-related TEAE rash, patients ([2]; 4 to 11 years, n=45): 11% | drug-related TEAE vomiting, patients ([2]; 4 to 11 years, n=45): 11% | pyrexia, patients (non-SCD related TEAE / adverse reaction) ([2]; 4 to 11 years, n=45): 35.6% | rash, patients (non-SCD related TEAE / adverse reaction) ([2]; 4 to 11 years, n=45): 20% | vomiting, patients (non-SCD related TEAE / adverse reaction) ([2]; 4 to 11 years, n=45): 33.3% | pyrexia, patients (non-SCD related TEAE / adverse reaction) [2, 8]: 36% | vomiting, patients (non-SCD related TEAE / adverse reaction) [2, 8]: 33% | abdominal pain, patients (adverse reaction) ([2]; 4 to <12 years, n=45): 18% | diarrhea, patients (adverse reaction) ([2]; 4 to <12 years, n=45): 18% | headache, patients (adverse reaction) ([2]; 4 to <12 years, n=45): 18% | patients who discontinued voxelotor due to adverse events ([2]; of 45 patients, 2 drug-related, 2 unrelated): 4 patients | CYP2B6 induction (CYP2B6): inducer | CYP2B6 inhibition (CYP2B6): reversible and time-dependent inhibitor | substrate of OATP1A2 (OATP1A2): not a substrate | developmental outcome (pregnant rabbits): no adverse developmental effects; also recorded: no evidence of adverse developmental outcomes | time to steady-state after repeated administration ([3]; patients with SCD): ≤ 8 days | dose linearity of PK ([3]; single or multiple doses, whole blood, plasma, RBCs): linear | OAT1 inhibition (OAT1): not an inhibitor | steady state whole blood AUC higher in HbSC vs HbSS genotype ([4]; HbSC n=11, HbSS n=220): 50% | steady state whole blood Cmax higher in HbSC vs HbSS genotype ([4]; HbSC n=11, HbSS n=220): 45% | steady state plasma AUC higher in HbSC vs HbSS genotype ([4]; human, in vivo): 23% | steady state plasma Cmax higher in HbSC vs HbSS genotype ([4]; human, in vivo): 15% | MATE1 inhibition (MATE1): not an inhibitor | increase in AUC with food, plasma [5]: 42% | increase in AUC with food, whole blood [5]: 42% | increase in Cmax with food, plasma [5]: 95% | increase in Cmax with food, whole blood [5]: 45% | OATP1B1 inhibition (OATP1B1): not an inhibitor | substrate of OATP1B1 (OATP1B1): not a substrate | adjusted mean change from baseline to Week 24 in hemoglobin (patients with SCD; 1,500 mg QD, N=90): 1.1 g/dL | adjusted mean percent change from baseline to Week 24 in indirect bilirubin (patients with SCD; 1,500 mg QD, N=90): −29.1% | adjusted mean percent change from baseline to Week 24 in percent reticulocyte count (patients with SCD; 1,500 mg QD, N=90): −18.0% | Hb response rate (Hb increase >1 g/dL from baseline to Week 24) (patients with SCD; 1,500 mg once daily, 46/90, adults and pediatric patients 12 years and older): 51% | AUC0-24 h, whole blood ([6]; 1,500 mg, geometric mean): 3,830 μg · hr/mL | Cmax, whole blood ([6]; 1,500 mg, geometric mean): 180000 ng/mL | differences in PK based on age (12 to 59 years), sex, body weight (28 to 135 kg), mild to severe renal impairment ([6]; human, in vivo): No clinically significant differences | Cmax ([6]; human, plasma, oral, 1500 mg, 1,500 mg, geometric mean): 14000 ng/mL | half-life ([6]; human, plasma, oral, 1500 mg, 1,500 mg, geometric mean, patients with SCD, read-out: Half-life (terminal elimination), plasma (converted)): 38.7 h | AUC(0-t) ([6]; human, plasma, oral, 1500 mg, 1,500 mg, geometric mean, read-out: AUC0-24 h, plasma): 278 µg·h/mL | Vd ([6]; human, plasma, oral, read-out: apparent volume of distribution of the central compartment): 333 L | apparent volume of distribution of the peripheral compartment ([6]; plasma): 72.3 L | apparent oral clearance ([6]; plasma, patients with SCD): 6.1 L/h | exposures in whole blood and plasma, pediatric patients 4 to <17 years vs adults ([6]; recommended dosage): similar | genotoxicity, Ames test [7]: not genotoxic
